Measured values taken from publication PMC11721041 (Molecules, 2024).
Values joined by “and” are separate entries in the source; they are usually repeats but may differ in a detail not shown here. Equal values may be shown once. Read-outs that look alike come from different tables or passages of the source.

What was measured:
AChE = conditions: cited from earlier work; for type of inhibition of AChE: native triterpenic acids
[1] = target: butyrylcholinesterase (BChE); conditions: cited from earlier work; for BChE activity (in words): native triterpenic acids
[2] = target: T1, Acetylcholinesterase from Electrophorus electricus (electric eel) (Electrophorus electricus, UniProt O42275); test: In vitro AChE inhibition assay (modified Ellman's method); assay type: biochemical; conditions: for IC50: IC50 against AChE enzyme, triplicate; for IC50 / AChE inhibitory activity (in words): electric eel AChE, Ellman's assay; for times more active than 3-oxo-analog: indole derivative vs its 3-oxo amide
T1 construct: purchased Sigma-Aldrich C2888
T1 sequence (O42275 24-633): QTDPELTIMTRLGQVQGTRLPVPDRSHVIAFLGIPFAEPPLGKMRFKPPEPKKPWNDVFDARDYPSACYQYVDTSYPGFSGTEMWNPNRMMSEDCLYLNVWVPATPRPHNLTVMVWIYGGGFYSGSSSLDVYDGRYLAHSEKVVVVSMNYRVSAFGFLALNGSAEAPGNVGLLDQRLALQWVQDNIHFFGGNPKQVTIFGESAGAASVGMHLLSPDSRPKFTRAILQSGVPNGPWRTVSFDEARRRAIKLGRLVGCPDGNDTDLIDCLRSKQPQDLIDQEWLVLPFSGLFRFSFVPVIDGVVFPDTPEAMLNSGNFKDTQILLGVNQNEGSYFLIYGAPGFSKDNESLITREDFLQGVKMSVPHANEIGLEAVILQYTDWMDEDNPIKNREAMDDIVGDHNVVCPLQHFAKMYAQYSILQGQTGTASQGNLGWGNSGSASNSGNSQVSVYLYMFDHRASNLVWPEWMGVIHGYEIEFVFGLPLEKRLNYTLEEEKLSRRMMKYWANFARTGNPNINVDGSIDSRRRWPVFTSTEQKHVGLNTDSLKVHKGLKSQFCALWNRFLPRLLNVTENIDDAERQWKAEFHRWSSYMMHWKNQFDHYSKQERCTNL
Protocol: Acetylcholinesterase from Electrophorus electricus (electric eel) (AChE, Sigma C2888), sodium phosphate buffer (PBS) 0.1 M pH 7.4, acetylthiocholine iodide (ACT, Sigma A5751), and 5,5′-dithiobis-(2-nitrobenzoic acid) (DTNB, Sigma D8130) were purchased from Sigma-Aldrich (St. Louis, MO, USA). In vitro anti-AChE activity was performed based on the modified Ellman’s method. […] The IC50 values were determined graphically from inhibition curves (log inhibitor concentration vs. percent of inhibition). All experiments were performed in triplicate. Donepezil was used as a positive control

[3] = target: T2, recombinant human acetylcholinesterase (hAChE) (Homo sapiens, UniProt P22303); test: In vitro inhibition of recombinant human AChE (Ellman's method), IC50; assay type: biochemical; conditions: 1 mM ATC, pH 8.0, 25 °C, read-out: IC50 against hAChE enzyme
T2 construct: purchased Sigma-Aldrich
T2 sequence (P22303 32-614): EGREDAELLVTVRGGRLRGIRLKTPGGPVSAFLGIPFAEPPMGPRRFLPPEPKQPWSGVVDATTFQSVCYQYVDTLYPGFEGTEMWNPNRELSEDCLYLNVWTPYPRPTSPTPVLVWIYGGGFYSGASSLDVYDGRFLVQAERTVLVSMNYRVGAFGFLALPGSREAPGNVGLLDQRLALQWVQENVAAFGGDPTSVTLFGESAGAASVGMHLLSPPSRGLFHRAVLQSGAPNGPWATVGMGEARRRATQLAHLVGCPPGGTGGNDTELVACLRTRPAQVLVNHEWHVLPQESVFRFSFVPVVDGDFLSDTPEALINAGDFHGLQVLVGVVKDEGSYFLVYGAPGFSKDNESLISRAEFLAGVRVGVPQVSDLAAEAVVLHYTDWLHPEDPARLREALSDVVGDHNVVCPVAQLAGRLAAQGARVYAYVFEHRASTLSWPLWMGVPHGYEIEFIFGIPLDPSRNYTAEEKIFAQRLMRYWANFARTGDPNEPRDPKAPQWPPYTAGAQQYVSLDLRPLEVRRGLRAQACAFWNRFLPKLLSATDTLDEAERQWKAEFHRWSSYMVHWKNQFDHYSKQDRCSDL
Protocol: Acetylthiocholine iodide (ATC), recombinant human acetylcholinesterase (hAChE), and 5,5′-dithio-bis-(2-nitrobenzoic) acid (DTNB) were purchased from Sigma-Aldrich (Sigma-Aldrich). Dimethyl sulfoxide (DMSO) was purchased from PanReac AppliChem GmbH (Darmstadt, Germany). All other chemicals were of biochemical grade. All assays were performed at 25 °C using a UV-1800 Shimadzu (Kyoto, Japan) spectrophotometer at 412 nm. The inhibitory potency of compounds against hAChE was studied using Ellman’s method. Stock solutions of compounds (0.01 M) were prepared using DMSO. The final concentration of DMSO in the cuvette was less than 0.05% vol. The inhibitory effect against AChE of 0.05% DMSO was considered weak. To determine the IC50 (the concentration of the compound producing 50% enzyme activity inhibition), enzyme-catalyzed hydrolysis was carried out in 0.1 M phosphate buffer (pH 8.0) containing hAChE in the picomolar range, DTNB (0.1 mM final concentration), and 1 mM ATC as substrate. […] Then, absorbance change was recorded for 2 min. […] The percentage of hAChE inhibition was determined by comparison of rates of reaction of test samples relative to the control sample. […] IC50 was calculated using the Hill Equation: E/Emax=I^n/IC50n+I^n where E is the enzyme activity and [I] is the compound concentration.

[4] = target: T2, recombinant human acetylcholinesterase (hAChE); test: hAChE inhibition constants and inhibition type (Dixon and Cornish-Bowden plots); assay type: biochemical; conditions: for type of AChE inhibition: Dixon and Cornish-Bowden plots
Protocol: The inhibition constants for hAChE were determined in 0.1M sodium phosphate buffer (pH 8.0) with various ATC concentrations in the range 0.1–1 mM. The rate of hydrolysis of ATC was measured after the addition of DTNB (0.1 mM final concentration) and enzyme. The final enzyme concentration in the assays was in the picomolar range. Controls of the active enzyme with 0.05% DMSO and ATC spontaneous hydrolysis in the absence of an inhibitor were performed for each substrate concentration. The rate of substrate hydrolysis was recorded by monitoring the linear optical density change at 412 nm for 5 min. Experiments were performed in triplicate. Inhibition constants were determined from the Dixon plot and Cornish-Bowden transformation using OriginPro 8.5 software (OriginLab Corporation, Northampton, MA, USA).

[5] = tested on: human T-lymphoblastic leukemia cancer cells; conditions: cited from earlier work
[6] = parameters: method as in PMID 32090748; conditions: combination with SSRIs, patients with MDD; cited from earlier work

Compound: C=C(C)[C@@H]1CC[C@]2(C(=O)NCCN3CCCCC3)CC[C@]3(C)C(CCC4[C@@]5(C)CC[C@H](O)C(C)(C)C5CC[C@]43C)C12 (stereo partly drawn)
- Ki (AChE; selective inhibition of AChE): 1 µM

Compound: CC(=O)O[C@H]1CC[C@@]2(C)C(CC[C@]3(C)C2CCC2C4[C@H](C(C)=O)CC[C@]4(C(=O)NCCN4CCCC4)CC[C@]23C)C1(C)C (stereo partly drawn)
- Ki ([1]; read-out: Ki against BChE): 0.07 µM

Compound: C=C(C)[C@@H]1CC[C@]2(C(=O)NC3CN4CCC3CC4)CC[C@]3(C)C(CCC4[C@@]5(C)CCC(=O)C(C)(C)C5CC[C@]43C)C12 (mixture of isomers) [Compound 6, 3-oxo-lup-20-en-28-((±)-3-aminoquinuclidine) amide]
- IC50 [2]: 17 ± 1.04 µM
- AChE inhibitory activity (in words) [2]: weak activity

Compound: CC1(C)CC[C@]2(C(=O)NC3CN4CCC3CC4)CC[C@]3(C)C(=CCC4[C@@]5(C)CCC(=O)C(C)(C)C5CC[C@]43C)C2C1 (mixture of isomers) [Compound 7, 3-oxo-olean-12-en-28-((±)-3-aminoquinuclidine) amide]
- IC50 [2]: 1.67 ± 0.05 µM

Compound: C[C@@H]1CC[C@]2(C(=O)NC3CN4CCC3CC4)CC[C@]3(C)C(=CCC4[C@@]5(C)CCC(=O)C(C)(C)C5CC[C@]43C)C2[C@H]1C (mixture of isomers) [Compound 8, 3-oxo-urs-12-en-28-((±)-3-aminoquinuclidine) amide]
- IC50 [2]: 0.43 ± 0.02 µM
- times less active than donepezil ([2]; ratio of AChE IC50 values): 14.8 times
- IC50 [3]: 5.33 ± 1.6 µM
- type of AChE inhibition [4]: mixed-type inhibitor
- Kui (uncompetitive inhibition constant) ([4]; hAChE, ATC 0.1–1 mM, pH 8.0): 22.8 ± 1.5 µM
- Ki ([4]; hAChE, ATC 0.1–1 mM, pH 8.0, read-out: Kci (competitive inhibition constant)): 6.8 ± 0.4 µM

Compound: CC1(C)C(=O)CC[C@@]2(C)C1CC[C@]1(C)C2CC=C2C3C[C@@](C)(C(=O)NC4CN5CCC4CC5)CC[C@]3(C)CC[C@]21C (mixture of isomers) [Compound 9, 3-oxo-11-dezoxo-olean-12-en-30-((±)-3-aminoquinuclidine) amide]
- IC50 [2]: 29 µM and 28.9 µM
- AChE inhibitory activity (in words) [2]: weak activity

Compound: C=C(C)[C@@H]1CC[C@]2(C(=O)NC3CN4CCC3CC4)CC[C@]3(C)C(CCC4[C@@]5(C)Cc6c([nH]c7ccccc67)C(C)(C)C5CC[C@]43C)C12 (mixture of isomers) [Compound 10, [3,2b]Indolo-lup-20-en-28-((±)-3-aminoquinuclidine) amide]
- IC50 [2]: 4.77 ± 0.21 µM
- times more active than 3-oxo-analog ([2]; ratio of AChE IC50 values): 3.5 times

Compound: CC1(C)CC[C@]2(C(=O)NC3CN4CCC3CC4)CC[C@]3(C)C(=CCC4[C@@]5(C)Cc6c([nH]c7ccccc67)C(C)(C)C5CC[C@]43C)C2C1 (mixture of isomers) [Compound 11, [3,2b]Indolo-olean-12-en-28-((±)-3-aminoquinuclidine) amide]
- IC50 [2]: 0.47 ± 0.03 µM
- AChE inhibitory activity (in words) [2]: weak activity
- times more active than 3-oxo-analog ([2]; ratio of AChE IC50 values): 3.5 times
- IC50 [3]: 8.89 ± 0.4 µM
- type of AChE inhibition [4]: uncompetitive type of inhibition
- type of AChE inhibition ([4]; listed as 2,3-indolo-oleanolic acid amide): uncompetitive-type inhibitor
- Kui (uncompetitive inhibition constant) ([4]; hAChE, ATC 0.1–1 mM, pH 8.0): 19.1 ± 5.1 µM

Compound: C[C@@H]1CC[C@]2(C(=O)NC3CN4CCC3CC4)CC[C@]3(C)C(=CCC4[C@@]5(C)Cc6c([nH]c7ccccc67)C(C)(C)C5CC[C@]43C)C2[C@H]1C (mixture of isomers) [Compound 12, [3,2b]Indolo-urs-12-en-28-((±)-3-aminoquinuclidine) amide]
- IC50 [2]: 18 ± 1.39 µM
- AChE inhibitory activity (in words) [2]: weak activity

Compound: CC1(C)c2[nH]c3ccccc3c2C[C@@]2(C)C1CC[C@]1(C)C2CC=C2C3C[C@@](C)(C(=O)NC4CN5CCC4CC5)CC[C@]3(C)CC[C@]21C (mixture of isomers) [Compound 13, [3,2b]Indolo-11-dezoxo-olean-12-en-30-((±)-3-aminoquinuclidine) amide]
- IC50 [2]: > 128 µM
- AChE inhibitory activity (in words) [2]: weak activity

Compound: CC1(C)CC[C@]2(C(=O)O)CC[C@]3(C)C(=CC[C@@H]4[C@@]5(C)CC[C@H](O)C(C)(C)[C@@H]5CC[C@]43C)[C@@H]2C1 [OA, oleanolic acid]
- BChE activity (in words) [1]: inactivity
- type of inhibition of AChE (AChE): competitive

Compound: C[C@H]1[C@H](C)CC[C@]2(C(=O)O)CC[C@]3(C)C(=CC[C@@H]4[C@@]5(C)CC[C@H](O)C(C)(C)[C@@H]5CC[C@]43C)[C@H]12 [UA, ursolic acid]
- BChE activity (in words) [1]: inactivity
- type of inhibition of AChE (AChE): mixed

Compound: C[C@@H]1CC[C@@]2(OC1)O[C@H]1C[C@H]3[C@@H]4CC=C5C[C@@H](O)CC[C@]5(C)[C@H]4CC[C@]3(C)[C@H]1[C@@H]2C [diosgenin]
- cytotoxicity (in words) [5]: does not exhibit cytotoxicity

Compound: CC1(C)[C@@H](O[C@H]2O[C@H](C(=O)O)[C@@H](O)[C@H](O)[C@H]2O[C@@H]2O[C@H](C(=O)O)[C@@H](O)[C@H](O)[C@H]2O)CC[C@]2(C)[C@H]3C(=O)C=C4[C@@H]5C[C@@](C)(C(=O)O)CC[C@]5(C)CC[C@@]4(C)[C@]3(C)CC[C@@H]12 [glycyrrhizic acid, Glycyrrhizic acid]
- clinical effect of adjunctive therapy (in words) [6]: impressively greater symptomatic improvement, better treatment response, and a faster onset of clinical effects

Compound: N-benzyl-3-benzamidoquinuclidine
- Ki ([1]; read-out: Ki, butyrylcholinesterase inhibitory activity): 3.7 µM
